Series [1] deals with COLO 205. The experiment in a line: Cytotoxicity against doxorubicin-sensitive human COLO205 cells after 24 hrs by MTT assay. As to conditions: COLO 205, 24 h. In kind it is functional, cell-based. For orientation: Tetrazolium assays rely on reduction of a dye to a coloured formazan, in cell work by metabolically active cells.
Series [2] relates to COLO 320. The experiment in a line: Cytotoxicity against multidrug resistant human COLO320 cells after 24 hrs by MTT assay. In kind it is functional, cell-based. To be noted: COLO 320, 24 h.
The subject of series [3] is MRC5. The series is described as follows: Cytotoxicity against human MRC5 cells after 24 hrs by MTT assay. In kind it is ADME, cell-based. To be noted: MRC5, 24 h.
A short description of series [4]: Selectivity index, ratio of IC50 for human MRC5 cells to IC50 for doxorubicin-sensitive human COLO205 cells. In kind it is functional.
Series [5] in a line: Selectivity index, ratio of IC50 for human MRC5 cells to IC50 for multidrug resistant human COLO320 cells. In kind it is functional.
In series [6] the test system is COLO 320. The series is described as follows: Induction of apoptosis in human COLO320 cells at 2 uM after 24 hrs by Annexin V-FITC/propidium iodide staining based flow cytometry relative to M627. In kind it is functional. Background: A flow cytometer gives signals particle by particle.
A short description of series [7]: Selectivity index, ratio of IC50 for doxorubicin-sensitive human COLO205 cells to IC50 for multidrug resistant human COLO320 cells. Type of series: functional.
Series [8] has as its target ATP-dependent translocase ABCB1 (Homo sapiens, UniProt P08183). The experiment in a line: Inhibition of human MDR1 transfected in mouse T lymphoma cells assessed as rhodamine-123 accumulation measured as fluorescence activity ratio quotient at 2 uM preincubated for 10 mins followed by rhodamine-123 addition measured after 20 mins by flow cytometry relative to verapamil. In kind it is cell-based. More on the design: scale not given: the % may be the effect or the level left.

Series [9] has as its system COLO 320. The experiment in a line: Induction of apoptosis in human COLO320 cells assessed as early apoptotic cells at 20 uM after 24 hrs by Annexin V-FITC/propidium iodide staining based flow cytometry (reference value: 20.3%). Type of series: functional.
For series [10], the system named is COLO 320. The experiment in a line: Induction of apoptosis in human COLO320 cells assessed as late apoptotic/necrotic cells at 20 uM after 24 hrs by Annexin V-FITC/propidium iodide staining based flow cytometry (reference value: 9.93%). Type of series: functional.
For series [11], the system named is COLO 320. The experiment in a line: Induction of apoptosis in human COLO320 cells assessed as cell death at 20 uM after 24 hrs by Annexin V-FITC/propidium iodide staining based flow cytometry (reference value: 4.75%). In kind it is functional.

Each structure is given as a SMILES string. A value given as a limit tells only on which side of the number the result lay.

Chain of ATP-dependent translocase ABCB1 (P08183 whole entry): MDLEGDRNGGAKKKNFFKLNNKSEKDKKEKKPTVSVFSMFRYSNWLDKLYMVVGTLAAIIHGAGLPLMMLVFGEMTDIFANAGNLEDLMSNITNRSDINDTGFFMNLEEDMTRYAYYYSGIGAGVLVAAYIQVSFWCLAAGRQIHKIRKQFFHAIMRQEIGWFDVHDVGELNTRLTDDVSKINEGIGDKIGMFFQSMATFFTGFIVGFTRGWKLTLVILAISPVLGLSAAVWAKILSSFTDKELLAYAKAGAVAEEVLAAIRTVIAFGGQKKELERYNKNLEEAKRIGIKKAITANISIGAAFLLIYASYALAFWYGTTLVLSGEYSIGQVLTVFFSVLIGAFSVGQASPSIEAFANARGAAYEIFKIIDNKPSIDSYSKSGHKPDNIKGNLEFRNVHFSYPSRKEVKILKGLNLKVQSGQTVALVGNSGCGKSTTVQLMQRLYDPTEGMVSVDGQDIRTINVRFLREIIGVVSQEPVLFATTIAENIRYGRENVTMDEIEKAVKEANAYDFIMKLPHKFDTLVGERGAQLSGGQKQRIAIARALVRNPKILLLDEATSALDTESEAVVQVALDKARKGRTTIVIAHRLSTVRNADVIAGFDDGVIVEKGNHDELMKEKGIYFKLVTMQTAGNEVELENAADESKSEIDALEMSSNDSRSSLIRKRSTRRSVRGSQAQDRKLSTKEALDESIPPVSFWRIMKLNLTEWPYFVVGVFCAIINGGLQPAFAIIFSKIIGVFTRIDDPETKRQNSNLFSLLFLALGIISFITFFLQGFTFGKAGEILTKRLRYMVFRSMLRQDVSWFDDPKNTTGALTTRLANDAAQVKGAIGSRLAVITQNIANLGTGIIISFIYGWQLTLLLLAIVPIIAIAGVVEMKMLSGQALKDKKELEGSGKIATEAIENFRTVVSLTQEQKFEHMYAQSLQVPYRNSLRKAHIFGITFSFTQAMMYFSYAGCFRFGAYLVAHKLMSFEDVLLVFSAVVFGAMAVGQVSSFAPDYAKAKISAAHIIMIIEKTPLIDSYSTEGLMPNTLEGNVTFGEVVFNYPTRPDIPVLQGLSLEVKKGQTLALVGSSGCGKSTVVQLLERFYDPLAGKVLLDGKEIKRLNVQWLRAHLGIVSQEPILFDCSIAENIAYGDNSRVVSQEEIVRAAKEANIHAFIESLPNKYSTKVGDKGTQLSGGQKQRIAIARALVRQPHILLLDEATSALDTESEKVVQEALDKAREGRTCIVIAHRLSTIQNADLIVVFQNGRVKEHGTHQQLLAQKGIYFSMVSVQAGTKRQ

Broadly, the IC50 is the concentration at which inhibition is half-maximal. Regarding `NC(=O)C[Se]C(=O)c1ccccc1`, the values for the IC50 in [1], in series [2] and in series [3] were > 100 µM, > 100 µM and 76.6 µM, respectively. Besides, the “Ratio IC50” value in series [4] and in series [5] was “<=0.77” in each case. For the same compound, the Activity in [6] is 37.3%.

For `O=C1[Se]C(=O)c2ccccc21`, the IC50 was > 100 µM in series [1], 63.9 µM in series [2] and > 100 µM in series [3]. Further, the “Ratio IC50” value in [7] and in series [5] was “>=1.6” in each case. This compound came in with an Activity in [6] of 88.4%.

Take `COC(=O)C[Se]C(=O)c1ccc(Cl)cc1`: the half-maximal inhibitory concentration (IC50) in [1] was > 100 µM; in [2], > 100 µM; in series [3], 33.4 µM. Besides, the “Ratio IC50” value in series [4] and in series [5] was “<=0.33” each time. Besides, the Activity in series [6] is recorded as 43.4%.

As for `O=C(C[Se]C(=O)c1ccccc1)Oc1ccccc1`, the half-inhibitory concentration (IC50) in [1] is > 100 µM; in [2], 53.7 µM; in series [3], > 100 µM. Also, the “Ratio IC50” value in [7] and in series [5] was “>=1.9” in each case. In series [6], this compound registered an Activity of 43%.

Take `CC(=O)C[Se]C(=O)c1ccc(Cl)cc1`: the values for the half-maximal inhibitory concentration (IC50) in series [1], in series [2] and in [3] were 5.48 µM, 0.55 µM and 5.35 µM, respectively. Further, the “Ratio IC50” value in series [7] turned out to be 10; in series [4], 0.98; in [5], 9.7. Besides, in series [6], the Activity was found to be 87.7%.

Regarding `CC(C)(C)C(=O)C[Se]C(=O)c1ccc(Cl)cc1`, the 50% inhibitory concentration (IC50) came to 1.63 µM in series [1], 0.96 µM in series [2] and 8.1 µM in series [3]. Besides, the “Ratio IC50” value came out at 1.7 in series [7], 5 in [4] and 8.4 in series [5]. Also, the Activity in series [6] was 80.3%; in series [8], 34 to 217%.

In the case of `COc1cc(OC)cc(C(=O)[Se]CC(=O)C(C)(C)C)c1`, the IC50 came to 1.19 µM in series [1], 0.35 µM in [2] and 5.04 µM in [3]. For the same compound, the “Ratio IC50” value was found to be 3.4 in series [7], 4.2 in [4] and 14.4 in [5]. Further, the figures for the Activity in [6] and in [8] were 88.7% and 46 to 228%, respectively.

Turning to `C[Se]C(=O)c1ccc(C(=O)[Se]C)cc1`, the concentration for half-maximal inhibition (IC50) in series [1] is > 100 µM; in series [2], > 100 µM; in [3], 61.5 µM. Also, the “Ratio IC50” value in series [4] and in series [5] was “<=0.62” throughout. In series [6], this compound displayed an Activity of 36.9%.

In the case of `C[Se]C(=O)c1cccc(C(=O)[Se]C)c1`, the IC50 in series [1] is > 100 µM; in series [2], 12.5 µM; in series [3], 28.4 µM. The “Ratio IC50” value is “>=8” in series [7], “<=0.28” in series [4] and 2.3 in series [5]. Also, the Activity in series [6] is 36.3%.

In the case of `C[Se]C(=O)c1cccc(C(=O)[Se]C)n1`, the IC50 in [1] was > 100 µM; in series [2], > 100 µM; in series [3], 17.9 µM. The “Ratio IC50” value in [4] and in series [5] was “<=0.18” each time. Further, the Activity in series [6] is 36.9%.

In the case of `C[Se]C(=O)c1ccc(C(=O)[Se]C)s1`, the IC50 was > 100 µM in [1], > 100 µM in [2] and 4.26 µM in series [3]. Further, the “Ratio IC50” value in [4] and in series [5] was “<=0.04” in each case. This compound registered an Activity in series [6] of 30.4%.

On to `N.N#CS`, for which the IC50 in [1], in series [2] and in [3] was > 100 µM throughout. In series [6], the Activity is listed as 9.55%.

Turning to `c1ccc2c(c1)Nc1c(ccc3ccccc13)S2`, the Activity is 58.5% in [9], 22% in series [10] and 2.91% in series [11].

In the case of `N#C[O-].[K+]`, the concentration for half-maximal inhibition (IC50) in series [1], in series [2] and in series [3] was > 100 µM throughout. The compound further returned an Activity in [6] of 7.28%.

Take `N#C[Se-].[K+]`: the IC50 in series [1], in [2] and in [3] was > 100 µM each time. This compound had an Activity in series [6] of 6.98%.

`O=C1OC(=O)c2ccccc21` [PHTHALIC ANHYDRIDE]: the IC50 in [1], in series [2] and in [3] was > 100 µM in each case. Further, the Activity in [6] worked out at 6.06%.

These data come from ChEMBL document CHEMBL3994632, “Selenoesters and selenoanhydrides as novel multidrug resistance reversing agents: A confirmation study in a colon cancer MDR cell line” (Bioorg Med Chem Lett, 2017).
